# Where two headings read alike, the source gives them in different places.
# How the values were obtained:
# [1] = target: GSK3b (GST-full length GSK3b) (Homo sapiens (Human), UniProt P49841); experiment: GSK3b TR-FRET kinase assay; assay type: biochemical
# How it was run: (§1)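 Readout: anti-pSer641 Tb antibody/streptavidin-d2 signal after 60 min, expressed as 665/615 ratio and fitted versus log concentration for IC50. Enzyme: 1 nM GST-GSK3 (α or β), compound-preincubated 30 min. Conditions: pH 7.5 Tris buffer with MgCl2, DTT, BSA; ATP at 4 or 2 μM, or 1 mM; 100 min.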
# [2] = target: GSK3α (GST-full length GSK3α) (Homo sapiens (Human), UniProt P49840); experiment: GSK3α TR-FRET kinase assay; assay type: biochemical
# Sequence of GSK3α (GST-full length GSK3α) (P49840 whole entry): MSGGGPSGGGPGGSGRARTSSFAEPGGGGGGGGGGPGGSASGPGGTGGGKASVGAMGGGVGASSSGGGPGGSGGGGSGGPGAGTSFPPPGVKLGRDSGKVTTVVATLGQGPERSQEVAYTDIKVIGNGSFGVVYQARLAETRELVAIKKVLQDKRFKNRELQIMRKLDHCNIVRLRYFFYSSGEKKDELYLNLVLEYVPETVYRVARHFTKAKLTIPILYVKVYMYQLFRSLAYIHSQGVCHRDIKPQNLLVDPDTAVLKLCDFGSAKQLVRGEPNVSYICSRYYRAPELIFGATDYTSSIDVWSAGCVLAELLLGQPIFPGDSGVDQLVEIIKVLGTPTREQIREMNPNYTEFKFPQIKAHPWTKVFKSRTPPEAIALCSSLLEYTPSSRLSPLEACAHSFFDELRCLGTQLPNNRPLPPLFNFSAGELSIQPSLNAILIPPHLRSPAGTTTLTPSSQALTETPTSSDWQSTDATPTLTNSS
# How it was run: as §1
# [3] = 1 nM GSK3b, 2 μM ATP, 30 minute preincubation, geometric mean, read-out: GSK3-B TR-FRET BIOCHEMICAL (TR-FRET), GMean, IC50
# [4] = 1 nM GSK3α, 4 μM ATP, 30 minute preincubation, geometric mean, read-out: GSK3-A TR-FRET BIOCHEMICAL (TR-FRET), GMean, IC50
# [5] = read-out: GSK3-B (TR-FRET 1 mM ATP), GMean, IC50, 1 mM ATP, geometric mean
# [6] = read-out: GSK3-A (TR-FRET 1 mM ATP), GMean, IC50, 1 mM ATP, geometric mean
# [7] = GSK3-B (TR-FRET 1 mM ATP), GMean, IC50, 1 mM ATP, geometric mean
# [8] = GSK3-A (TR-FRET 1 mM ATP), GMean, IC50, 1 mM ATP, geometric mean
# [9] = 1 nM GSK3b, 2 μM ATP, 30 minute preincubation, read-out: GSK3-B TR-FRET BIOCHEMICAL (TR-FRET), IC50
# [10] = 1 nM GSK3α, 4 μM ATP, 30 minute preincubation, read-out: GSK3-A TR-FRET BIOCHEMICAL (TR-FRET), IC50
# [11] = 1 nM GSK3b, 2 μM ATP, 30 minute preincubation, Table 16, read-out: GSK3-B TR-FRET BIOCHEMICAL (TR-FRET)
# [12] = 1 nM GSK3α, 4 μM ATP, 30 minute preincubation, Table 16, read-out: GSK3-A TR-FRET BIOCHEMICAL (TR-FRET)
# Sequence of GSK3b (GST-full length GSK3b) (P49841 whole entry): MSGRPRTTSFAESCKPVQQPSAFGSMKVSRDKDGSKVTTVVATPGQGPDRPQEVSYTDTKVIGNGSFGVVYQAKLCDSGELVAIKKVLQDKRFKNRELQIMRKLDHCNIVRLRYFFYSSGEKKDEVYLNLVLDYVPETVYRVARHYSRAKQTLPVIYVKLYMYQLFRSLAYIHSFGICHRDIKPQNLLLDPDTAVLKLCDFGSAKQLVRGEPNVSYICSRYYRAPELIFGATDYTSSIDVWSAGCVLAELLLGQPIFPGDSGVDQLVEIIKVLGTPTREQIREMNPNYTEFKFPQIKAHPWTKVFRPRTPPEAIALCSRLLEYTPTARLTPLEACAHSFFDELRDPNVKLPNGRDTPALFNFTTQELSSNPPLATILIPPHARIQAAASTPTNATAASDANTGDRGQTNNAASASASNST
SMILES,"IC50 [1, 3]","IC50 [2, 4]",other results
CC[C@]1(c2cccc(-c3ccnc(C)c3C)c2)C2=C(CC(C)(C)NC2=O)Nc2n[nH]cc21 [Compound 948184],100 to 1000 nM,≤ 100 nM,"IC50 [1, 5]: 1000 to 5000 nM; IC50 [2, 6]: 100 to 1000 nM"
CCC1(c2cccc(C(F)(F)F)c2)C2=C(Nc3n[nH]cc31)c1ccccc1C2=O (stereo not drawn) [Compound 948205],,,"IC50 ([1]; 1 nM GSK3b, 2 μM ATP, 30 minute preincubation, Table 16, read-out: GSK3-B TR-FRET BIOCHEMICAL (TR-FRET), IC50): ≤ 100 nM; IC50 [1, 7]: 100 to 1000 nM; IC50 ([2]; 1 nM GSK3α, 4 μM ATP, 30 minute preincubation, Table 16, read-out: GSK3-A TR-FRET BIOCHEMICAL (TR-FRET), IC50): ≤ 100 nM; IC50 [2, 8]: 100 to 1000 nM"
Cc1cc(C)cc(C(=O)N2CC3(C2)CC2(CO3)C3=C(CC(C)(C)CC3=O)Nc3n[nH]cc32)c1 (stereo not drawn) [Compound 948222],,,"IC50 [1, 9]: 1000 to 5000 nM; IC50 [2, 10]: 100 to 1000 nM"
Cc1cc(C)cc(C(=O)N2CC3(C2)C[C@]2(CO3)C3=C(CC(C)(C)CC3=O)Nc3n[nH]cc32)c1 [Compound 948223],,,"IC50 [1, 9]: ≤ 100 nM; IC50 [1, 5]: 100 to 1000 nM; IC50 [2, 10]: ≤ 100 nM; IC50 [2, 6]: 100 to 1000 nM"
CC[C@@]1(c2cccc(C(F)(F)F)c2)C2=C(CCN(c3ccc(F)cc3)C2=O)Nc2n[nH]cc21 [Compound 948224],100 to 1000 nM,≤ 100 nM,
CC[C@]1(c2cccc(C(F)(F)F)c2)C2=C(CCN(c3ccc(F)cc3)C2=O)Nc2n[nH]cc21 [Compound 948225],> 5000 nM,1000 to 5000 nM,
CC[C@]1(c2cccc(C(F)(F)F)c2)C2=C(CCN(c3ccc(OC)cc3)C2=O)Nc2n[nH]cc21 [Compound 948227],> 5000 nM,1000 to 5000 nM,
CCC1(c2cccc(C(F)(F)F)c2)C2=C(CCN(c3ccc(C)cc3)C2=O)Nc2n[nH]cc21 (stereo not drawn) [Compound 948241],100 to 1000 nM,≤ 100 nM,
CCC1(c2cccc(-c3ccnc(C)c3F)c2)C2=C(CC(C)(C)NC2=O)Nc2n[nH]c(C(F)(F)F)c21 (stereo not drawn) [Compound 948297],≤ 100 nM,≤ 100 nM,
CC1(C)CC(=O)C2=C(C1)Nc1n[nH]cc1C21CN(c2ccccc2)C1 [Compound 948298],,,"IC50 [1, 11]: ≤ 100 nM; IC50 [2, 12]: ≤ 100 nM"
CCC1(c2cccc(-c3ccnc(C)c3)c2)C2=C(CC(C)(C)NC2=O)Nc2n[nH]c(F)c21 (stereo not drawn) [Compound 948299],1000 to 5000 nM,≤ 100 nM,
CCC1(c2cccc(-c3cn(C)nc3C)c2)C2=C(CC(C)(C)NC2=O)Nc2n[nH]c(F)c21 (stereo not drawn) [Compound 948301],≤ 100 nM,≤ 100 nM,
CCC1(c2cccc(-c3ccnc(C)c3)c2)C2=C(CC(C)(C)N(C)C2=O)Nc2n[nH]cc21 (stereo not drawn) [Compound 948302],100 to 1000 nM,≤ 100 nM,
CCC1(c2cccc(S(=O)(=O)C3CC3)c2)C2=C(CC(C)(C)N(C)C2=O)Nc2n[nH]cc21 (stereo not drawn) [Compound 948303],≤ 100 nM,≤ 100 nM,
CC[C@]1(c2cccc(-c3ccnc(C)c3F)c2)C2=C(CC(C)(C)NC2=O)Nc2n[nH]cc21 [Compound 948306],100 to 1000 nM,≤ 100 nM,
CC[C@]1(c2cccc(-c3cn[nH]c3)c2)C2=C(CC(C)(C)NC2=O)Nc2n[nH]c(C(F)(F)F)c21 [Compound 948307],≤ 100 nM,≤ 100 nM,"IC50 [1, 5]: ≤ 100 nM; IC50 [2, 6]: ≤ 100 nM"
CCC1(c2cccc(-c3ccnc4c3CCC4)c2)C2=C(CC(C)(C)NC2=O)Nc2n[nH]cc21 (stereo not drawn) [Compound 948308],> 5000 nM,> 5000 nM,
CC[C@@]1(c2cccc(-c3ccnc4c3CCC4)c2)C2=C(CC(C)(C)NC2=O)Nc2n[nH]cc21 [Compound 948313],≤ 100 nM,≤ 100 nM,"IC50 [1, 5]: 1000 to 5000 nM; IC50 [2, 6]: 100 to 1000 nM"

SMILES,"IC50 [1, 3]","IC50 [2, 4]",other results
CC(=O)N1CC[C@]2(C1)C[C@]1(CO2)C2=C(CC(C)(C)CC2=O)Nc2n[nH]cc21 [Compound 948319],,,"IC50 [1, 9]: 100 to 1000 nM; IC50 [2, 10]: ≤ 100 nM"
CC(=O)N1CC[C@@]2(C1)C[C@]1(CO2)C2=C(CC(C)(C)CC2=O)Nc2n[nH]cc21 [Compound 948320],,,"IC50 [1, 9]: 1000 to 5000 nM; IC50 [2, 10]: 100 to 1000 nM"
CCc1cc(-c2cccc([C@]3(CC)C4=C(CC(C)(C)NC4=O)Nc4n[nH]cc43)c2)ccn1 [Compound 948360],> 5000 nM,1000 to 5000 nM,
CC[C@@]1(c2cccc(-c3ccnc4cc(Cl)ccc34)c2)C2=C(CC(C)(C)NC2=O)Nc2n[nH]cc21 [Compound 948362],> 5000 nM,> 5000 nM,
CCC1(c2cccc(-c3ccnn3C)c2)C2=C(CC3(CCCOC3)NC2=O)Nc2n[nH]cc21 (stereo not drawn) [Compound 948366],> 5000 nM,1000 to 5000 nM,
CCC1(c2cccc(-c3ccncc3C)c2)C2=C(CC3(CCOCC3)NC2=O)Nc2n[nH]cc21 (stereo not drawn) [Compound 948367],> 5000 nM,100 to 1000 nM,
CC[C@@]1(c2cccc(-c3ccnc(C)c3Cl)c2)C2=C(CC(C)(C)NC2=O)Nc2n[nH]cc21 [Compound 948369],> 5000 nM,> 5000 nM,
CC[C@]1(c2cccc(-c3c(F)cncc3Cl)c2)C2=C(CC(C)(C)NC2=O)Nc2n[nH]cc21 [Compound 948371],≤ 100 nM,≤ 100 nM,"IC50 [1, 5]: 100 to 1000 nM; IC50 [2, 6]: 100 to 1000 nM"
CCC1(c2cccc(C(F)(F)F)c2)C2=C(CCN(c3cncnc3)C2=O)Nc2n[nH]cc21 (stereo not drawn) [Compound 948380],> 5000 nM,100 to 1000 nM,
CCC1(c2cccc(-c3ccnc(C)c3)c2)C2=C(CC(C)(C)NC2=O)Nc2n[nH]c(C)c21 (stereo not drawn) [Compound 948414],> 5000 nM,> 5000 nM,
Cc1cc([C@H]2CC[C@@]3(CC2)C2=C(CC(C)(C)CC2=O)Nc2n[nH]cc23)ccn1 [Compound 948415],,,"IC50 [1, 11]: ≤ 100 nM; IC50 [2, 12]: ≤ 100 nM"
Cc1cc([C@H]2CC[C@]3(CC2)C2=C(CC(C)(C)CC2=O)Nc2n[nH]cc23)ccn1 [Compound 948416],,,"IC50 [1, 11]: 100 to 1000 nM; IC50 [2, 12]: ≤ 100 nM"
CC[C@]1(c2cccc(S(=O)(=O)C(C)C)c2)C2=C(CC(C)(C)NC2=O)Nc2n[nH]c(C(F)(F)F)c21 [Compound 948419],≤ 100 nM,≤ 100 nM,"IC50 [1, 5]: ≤ 100 nM; IC50 [2, 6]: ≤ 100 nM"
CC[C@@]1(c2cccc(S(C)(=O)=O)c2)C2=C(CC(C)(C)NC2=O)Nc2n[nH]c(C(F)(F)F)c21 [Compound 948422],100 to 1000 nM,100 to 1000 nM,
CC(=O)N1C[C@]2(C[C@]3(CO2)C2=C(CC(C)(C)CC2=O)Nc2n[nH]cc23)[C@H]1C [Compound 948437],,,"IC50 [1, 9]: ≤ 100 nM; IC50 [1, 7]: ≤ 100 nM; IC50 [2, 10]: ≤ 100 nM; IC50 [2, 8]: ≤ 100 nM"
CC(=O)N1C[C@@]2(C[C@]3(CO2)C2=C(CC(C)(C)CC2=O)Nc2n[nH]cc23)[C@@H]1C [Compound 948438],,,"IC50 [1, 9]: ≤ 100 nM; IC50 [2, 10]: ≤ 100 nM"
CC(=O)N1C[C@]2(C[C@@]3(CO2)C2=C(CC(C)(C)CC2=O)Nc2n[nH]cc23)[C@H]1C [Compound 948439],,,"IC50 [1, 9]: ≤ 100 nM; IC50 [1, 7]: ≤ 100 nM; IC50 [2, 10]: ≤ 100 nM; IC50 [2, 8]: ≤ 100 nM"

# More lines, main results first:
"IC50 [1, 3]","IC50 [2, 4]",SMILES,other results
≤ 100 nM,≤ 100 nM,CCC1(c2cccc(-c3cncn3C)c2)C2=C(CC(C)(C)NC2=O)Nc2n[nH]c(C(F)(F)F)c21 (stereo not drawn) [Compound 948180],
100 to 1000 nM,100 to 1000 nM,CC[C@]1(c2cccc(-c3ccnc(C)c3C)c2)C2=C(CC(C)(C)NC2=O)Nc2n[nH]c(C(F)(F)F)c21 [Compound 948181],
≤ 100 nM,≤ 100 nM,CCC1(c2cccc(-c3ccnc(C)c3C)c2)C2=C(CC(C)(C)NC2=O)Nc2n[nH]c(C(F)(F)F)c21 (stereo not drawn) [Compound 948185],"IC50 [1, 5]: ≤ 100 nM; IC50 [2, 6]: ≤ 100 nM"
≤ 100 nM,≤ 100 nM,CCC1(c2cccc(-c3ccnc(C)c3C)c2)C2=C(CC(C)(C)NC2=O)Nc2n[nH]c(C)c21 (stereo not drawn) [Compound 948187],
≤ 100 nM,≤ 100 nM,CCC1(c2cccc(-c3cn(C)nc3C)c2)C2=C(CC(C)(C)N(C)C2=O)Nc2n[nH]cc21 (stereo not drawn) [Compound 948304],
≤ 100 nM,≤ 100 nM,CCC1(c2cccc(C(F)F)c2)C2=C(CC(C)(C)NC2=O)Nc2n[nH]c(C(F)(F)F)c21 (stereo not drawn) [Compound 948305],
100 to 1000 nM,≤ 100 nM,CC[C@@]1(c2cccc(-c3cn[nH]c3)c2)C2=C(CC(C)(C)NC2=O)Nc2n[nH]c(C(F)(F)F)c21 [Compound 948312],
≤ 100 nM,≤ 100 nM,CCC1(c2cccc(-c3cn(C)nc3C)c2)C2=C(CC(C)(C)NC2=O)Nc2n[nH]c(C(F)(F)F)c21 (stereo not drawn) [Compound 948314],"IC50 [1, 5]: ≤ 100 nM; IC50 [2, 6]: ≤ 100 nM"
100 to 1000 nM,≤ 100 nM,CCC1(c2cccc(C(F)(F)F)c2)C2=C(CCN(c3cncnc3)C2=O)Nc2n[nH]cc21 (stereo not drawn) [Compound 948379],"IC50 [1, 5]: > 5000 nM; IC50 [2, 6]: 100 to 1000 nM"
100 to 1000 nM,≤ 100 nM,CC[C@@]1(c2cccc(S(=O)(=O)C(C)C)c2)C2=C(CC(C)(C)NC2=O)Nc2n[nH]c(C(F)(F)F)c21 [Compound 948423],
